Legend:
[1] = target: Progesterone receptor membrane component 1 (hPGRMC1) (Homo sapiens, UniProt O00264, Y164F); experiment: UV-vis spectroscopy; format: binding
[2] = target: Progesterone receptor membrane component 1 (hPGRMC1) (Homo sapiens, UniProt O00264, Y164H); experiment: UV-vis; format: binding
Chain of Progesterone receptor membrane component 1 (hPGRMC1) (Homo sapiens, UniProt O00264, Y164H) (O00264 71-195 Y164H): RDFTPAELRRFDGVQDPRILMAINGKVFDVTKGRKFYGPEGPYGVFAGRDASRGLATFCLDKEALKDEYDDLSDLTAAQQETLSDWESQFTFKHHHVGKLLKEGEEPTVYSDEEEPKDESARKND

Chain of Progesterone receptor membrane component 1 (hPGRMC1) (Homo sapiens, UniProt O00264, Y164F) (O00264 71-195 Y164F): as the sequence (O00264 71-195 Y164H) above, with H94F counted along it

## heme
[1]
  % of WT heme binding: ~ 15 % of WT heme binding
[2]
  % of WT heme binding: ~ 90 % of WT heme binding
